Reference: US20240317764A1, “SALTS AND SOLID FORMS OF A COMPOUND HAVING APJ RECEPTOR ACTIVITY” (Annapurna Bio, Inc., priority 2022, published 2024)
≈ marks a conversion by molar mass, not a printed value. Entries after “also recorded” stand apart in the source; their conditions may differ. Counter-ions that a name gives are not always drawn.

Assays:
[1] = Solid stability, 54 and 91 days (XRPD and HPLC purity); assay type: physicochemical; settings: 25° C./60% RH or 40° C./75% RH
Text: (§1) The re-prepared choline salt Form A was used for evaluation, including solubility and solid stability. Free acid Form A was selected as comparison for pH solubility and solid stability evaluation.

physchem = settings: thermodynamic from solid
Experimental: The solubility of starting material (Compound I choline salt Form A) was estimated at room temperature (RT, ˜26° C.). Specifically, approximate 2 mg solid was added into HPLC glass vials. Solvents in Table 5-2 were then added stepwise (50/50/200/700 μL) into the vials until the solids were dissolved or a total volume of 1.0 mL was reached.

[2] = Dog pharmacokinetic study after oral administration, plasma by LC-MS/MS; assay type: in vivo, male Beagle dogs; settings: for Cmax / AUC(0-t) / Tmax: male, Beagle, 30 mg/kg; for Cmax / AUC(0-t): mean; for Cmax: plasma Compound I; for AUC(0-t): t = 24 h; for Tmax: median value or range
Experimental: The objective of this study was to characterize the pharmacokinetics (PK) of Compound I in male Beagle dogs after oral (P0) administration. The P0 formulation was prepared in capsule or prepared in 0.50% or […] (methyl cellulose) in water at a concentration of 6 mg/mL for oral administration at 30 mg/kg.
LC-MS/MS for the PK studies was carried out using the following instruments/conditions.
Compound I Free acid Form A and Compound I choline salt Form A were formulated as an oral suspension at a target dose concentration of 6 mg/mL in 0.500 or 1% MC in water.
The dose was administered orally by gavage at a target dose volume of 5 mL/kg. Compound I choline salt Form A was also formulated as an oral capsule at a target dose concentration of 30 mg/kg. The formulation was prepared on the day of dosing and stored at room temperature prior to administration. The dose was administered orally by gavage to dogs. Following oral administration, blood samples were collected from […] at pre-dose, 0.083, 0.25, 0.5, 1, 2, 4, 8 and 24 h post dose.
The plasma concentration of Compound I was determined by liquid chromatography with mass spectrometric detection (LC-MS/MS).

[3] = Hygroscopicity by DVS at 25° C. between 0% RH and 95% RH, XRPD after DVS; assay type: physicochemical; settings: for Water uptake, comparison between forms (in words): DVS at 25° C., 0% RH to 95% RH; for Water uptake (25° C./80% RH): DVS; for Form change after DVS: XRPD after DVS test
Experimental: DVS was measured via a SMS (Surface Measurement Systems) DVS Intrinsic. The relative humidity at 25° C. were calibrated against deliquescence point of LiCl, Mg(NO3)2 and KCl.
In order to evaluate the hygroscopicity of Compound I free acid Form A and re-prepared salt forms, DVS isotherm plots were collected at 25° C. between 0% RH and 95% RH. XRPD characterization was performed for the samples after DVS test.

[4] = pH buffers
Text: as §1

[5] = Approximate solubility of Compound I free acid Form A in 14 solvents at RT; assay type: physicochemical
Experimental: Approximate solubility of starting material (Compound I free acid Form A) was determined in 14 solvents at RT. Approximately 2 mg of sample was added into a 3-mL glass vial. Solvents in Table 1-3 were then added stepwise into the vials until the solids were dissolved visually or a total volume of 2 mL was reached. Solubility results summarized in Table 1-1 were used to guide the solvent selection in screening experiment design.

[6] = compared to Compound I choline salt Form A

In the case of `CCOc1cccc(-c2nc3ncc(NS(C)(=O)=O)nc3n2-c2c(OC)cccc2OC)n1` [Compound I choline salt Form A, N-(1-(2,6-dimethoxyphenyl)-2-(6-ethoxypyridin-2-yl)-1H-imidazo[4,5-b]pyrazin-6-yl)methanesulfonamide choline salt Form A], the “Solid stability: form change (XRPD) and HPLC purity” value (“Solid stability: form change” for short) [1] is reported as “no form change or obvious HPLC purity decrease; also recorded: physically/chemically stable”, the “Solid stability: form change” value ([1]; listed as choline salt Form A) is reported as “no form change or obvious HPLC purity decrease; also recorded: physically/chemically stable” and the “Solubility in certain non-polar solvents (in words)” value (IPA, acetone, MEK, MIBK, ethyl acetate, isopropyl acetate, MTBE, THF, 2-MeTHF, CHCl3, n-heptane, toluene, DCM, 1,4-dioxane) is reported as “less soluble”. For the same compound, the “Solubility in polar solvents (in words)” value (methanol, DMSO, and water) was “good solubility”, the solubility (physchem; 1,4-Dioxane, 26 °C, organic solvent or mixture) was under 2100 µg/mL and the solubility (physchem; 2-Butanol, 26 °C, organic solvent or mixture) was under 1800 µg/mL. The solubility (physchem; 2-MeTHF, 26 °C, organic solvent or mixture) was under 1800 µg/mL, the solubility (physchem; ACN, 26 °C, organic solvent or mixture) was 7100 to 21400 µg/mL and the solubility (physchem; ACN/IPAc (1:1), 26 °C, organic solvent or mixture) was under 2100 µg/mL. The solubility (physchem; ACN/IPAc (9:1), 26 °C, organic solvent or mixture) was 2200 to 7300 µg/mL, the solubility (physchem; ACN/Toluene (1:1), 26 °C, organic solvent or mixture) was 2100 to 7000 µg/mL and the solubility (physchem; ACN/Toluene (9:1), 26 °C, organic solvent or mixture) was 6300 to 18800 µg/mL. The solubility (physchem; Acetone/H2O (19:1), 26 °C, organic solvent or mixture) was 7200 to 21600 µg/mL, the solubility (physchem; CHCl3, 26 °C, organic solvent or mixture) was under 2100 µg/mL and the solubility (physchem; CPME, 26 °C, organic solvent or mixture) was under 1800 µg/mL. It also gave a solubility (physchem; DCM, 26 °C, organic solvent or mixture) of under 2100 µg/mL, a solubility (physchem; DMF, 26 °C, organic solvent or mixture) of 20200 to 40400 µg/mL and a solubility (physchem; DMSO, 26 °C, organic solvent or mixture) of 18800 to 37600 µg/mL. It also gave a solubility (physchem; EtOAc, 26 °C, organic solvent or mixture) of under 1700 µg/mL, a solubility (physchem; EtOH, 26 °C, organic solvent or mixture) of 6800 to 20500 µg/mL and a solubility (physchem; EtOH/H2O (19:1), 26 °C, organic solvent or mixture) of 6600 to 19900 µg/mL. The solubility (physchem; IPA/ACN (1:1), 26 °C, organic solvent or mixture) was 7000 to 21000 µg/mL, the solubility (physchem; IPAc, 26 °C, organic solvent or mixture) was under 2000 µg/mL and the solubility (physchem; MEK, 26 °C, organic solvent or mixture) was under 2000 µg/mL. For the same compound, the solubility (physchem; MIBK, 26 °C, organic solvent or mixture) was under 2300 µg/mL, the solubility (physchem; MTBE, 26 °C, organic solvent or mixture) was under 2100 µg/mL and the solubility (physchem; MeOH/DCM (1:1), 26 °C, organic solvent or mixture) was over 39600 µg/mL. It also gave a solubility (physchem; MeOH/DCM (1:9), 26 °C, organic solvent or mixture) of over 40800 µg/mL, a solubility (physchem; MeOH/DCM (1:19), 26 °C, organic solvent or mixture) of over 38600 µg/mL and a solubility (physchem; THF, 26 °C, organic solvent or mixture) of under 1800 µg/mL. It also gave a solubility (physchem; THF/H2O (19:1), 26 °C, organic solvent or mixture) of over 40400 µg/mL, a solubility (physchem; acetone, 26 °C, organic solvent or mixture) of under 2400 µg/mL and a solubility (physchem; isopropanol (IPA), 26 °C, organic solvent or mixture) of under 2200 µg/mL. The solubility (physchem; methanol, 26 °C, organic solvent or mixture) was over 45200 µg/mL, the solubility (physchem; n-heptane, 26 °C, organic solvent or mixture) was under 2100 µg/mL and the solubility (physchem; toluene, 26 °C, organic solvent or mixture) was under 2200 µg/mL. It also gave a solubility (physchem; water, 26 °C) of over 43000 µg/mL, a Cmax ([2]; plasma, po, capsule) of 11900 ng/mL and an AUC(0-t) ([2]; plasma, po, capsule) of 145 µg·h/mL. It also gave a Cmax ([2]; plasma, po, suspension) of 73800 ng/mL, an AUC(0-t) ([2]; plasma, po, suspension) of 1120 µg·h/mL and a Tmax ([2]; plasma, po, suspension) of 2 to 4 h. For the same compound, the “Pharmacokinetic profile (in words)” value ([2]; suspension and capsule) was “excellent pharmacokinetic profiles”, the “Mean AUClast and Cmax compared with free acid Form A suspension” value ([2]; suspension or capsule) was “greater than that of Compound I free acid Form A” and the “Water uptake, comparison between forms (in words)” value (shortened to “Water uptake … (in words)”) [3] was “No significant difference”. The “Water uptake (25° C./80% RH)” value [3] was 3.85%, the “Form change after DVS” value [3] was “No” and the “pH solubility compared with free acid Form A” value [4] was “higher solubility than free acid Form A”.

With `CCOc1cccc(-c2nc3ncc(NS(C)(=O)=O)nc3n2-c2c(OC)cccc2OC)n1` [Compound I free acid Form A, N-(1-(2,6-dimethoxyphenyl)-2-(6-ethoxypyridin-2-yl)-1H-imidazo[4,5-b]pyrazin-6-yl)methanesulfonamide] the “Solid stability: form change” value [1] was “no form change or obvious HPLC purity decrease”, the AUC(0-t) ([2]; plasma, suspension) was 13.8 µg·h/mL and the Tmax ([2]; plasma, suspension) was 4 h. For the same compound, the Cmax ([2]; suspension) was 983 ng/mL, the “Water uptake … (in words)” value [3] was “lowest water uptake” and the “Water uptake … (in words)” value ([3]; listed as free acid Form A) was “lowest water uptake”. For the same compound, the “Water uptake (25° C./80% RH)” value [3] was 0.03%, the “Form change after DVS” value [3] was “No” and the solubility ([5]; organic solvent or mixture, thermodynamic from solid, 1,4-dioxane) was 2000 to 5000 µg/mL (≈ 4.25 to 10.6 mM). For the same compound, the solubility ([5]; organic solvent or mixture, thermodynamic from solid, 2-MeTHF) was under 1000 µg/mL, the solubility ([5]; organic solvent or mixture, thermodynamic from solid, ACN) was 2000 to 5000 µg/mL (≈ 4.25 to 10.6 mM) and the solubility ([5]; organic solvent or mixture, thermodynamic from solid, DCM) was 5300 to 10500 µg/mL (≈ 11.3 to 22.3 mM). It also gave a solubility ([5]; organic solvent or mixture, thermodynamic from solid, EtOAc) of under 1000 µg/mL, a solubility ([5]; organic solvent or mixture, thermodynamic from solid, EtOH) of under 1100 µg/mL and a solubility ([5]; organic solvent or mixture, thermodynamic from solid, IPA) of under 900 µg/mL. The solubility ([5]; organic solvent or mixture, thermodynamic from solid, MTBE) was under 900 µg/mL, the solubility ([5]; organic solvent or mixture, thermodynamic from solid, MeOH) was 1000 to 2100 µg/mL (≈ 2.13 to 4.46 mM) and the solubility ([5]; organic solvent or mixture, thermodynamic from solid, THF) was 9000 to 18000 µg/mL (≈ 19.1 to 38.3 mM). For the same compound, the solubility ([5]; organic solvent or mixture, thermodynamic from solid, acetone) was 2100 to 5200 µg/mL (≈ 4.46 to 11.1 mM), the solubility ([5]; organic solvent or mixture, thermodynamic from solid, n-heptane) was under 1300 µg/mL and the solubility ([5]; organic solvent or mixture, thermodynamic from solid, toluene) was under 800 µg/mL. The solubility ([5]; water, thermodynamic from solid, H2O) was under 1200 µg/mL.

In the case of `CCOc1cccc(-c2nc3ncc([N-]S(C)(=O)=O)nc3n2-c2c(OC)cccc2OC)n1.[K+]` [Compound I potassium salt Form A, N-(1-(2,6-dimethoxyphenyl)-2-(6-ethoxypyridin-2-yl)-1H-imidazo[4,5-b]pyrazin-6-yl)methanesulfonamide potassium salt Form A], the “Water uptake … (in words)” value [3] is reported as “No significant difference”, the “Water uptake (25° C./80% RH)” value [3] is reported as 3.71% and the “Form change after DVS” value [3] is reported as “No”.

In the case of `CCOc1cccc(-c2nc3ncc([N-]S(C)(=O)=O)nc3n2-c2c(OC)cccc2OC)n1.[Na+]` [Compound I sodium salt Form A, N-(1-(2,6-dimethoxyphenyl)-2-(6-ethoxypyridin-2-yl)-1H-imidazo[4,5-b]pyrazin-6-yl)methanesulfonamide sodium salt Form A], the “Water uptake (25° C./80% RH)” value [3] is reported as 1.13%, the “Form change after DVS” value ([3]; listed as Compound I Na salt Form A) is reported as “converted to a new form after DVS test; also recorded: form change was observed after DVS” and the “Form change after DVS” value ([3]; listed as Na salt Form A) is reported as “Yes*”. For the same compound, the “Hygroscopicity (in words)” value [3, 6] was “exhibited hygroscopicity” and the “Stability after exposure to high humidity (in words)” value [3, 6] was “less stable after exposed to high humidity”.
